Reference: patent US11279707B2, “NEK inhibitors and methods of use” (DANA-FARBER CANCER INSTITUTE, INC., priority 2017, dated 2022)

Assays:
Assay type in all cases: biochemical
[1] = target: T1, NEK2 (Homo sapiens, UniProt P51955); test: kinase inhibition, NEK2
T1 sequence (P51955 1-445): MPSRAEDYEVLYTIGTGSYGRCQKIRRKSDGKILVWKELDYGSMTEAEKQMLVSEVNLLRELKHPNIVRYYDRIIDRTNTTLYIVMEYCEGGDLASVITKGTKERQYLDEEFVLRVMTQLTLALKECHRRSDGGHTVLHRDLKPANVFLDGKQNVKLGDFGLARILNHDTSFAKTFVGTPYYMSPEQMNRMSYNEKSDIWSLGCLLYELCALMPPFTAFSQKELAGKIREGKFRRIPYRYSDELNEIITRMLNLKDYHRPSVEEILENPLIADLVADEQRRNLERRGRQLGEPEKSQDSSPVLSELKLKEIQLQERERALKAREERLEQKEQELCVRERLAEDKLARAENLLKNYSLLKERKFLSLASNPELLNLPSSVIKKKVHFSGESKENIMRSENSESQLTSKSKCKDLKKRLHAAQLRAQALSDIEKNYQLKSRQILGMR

[2] = target: T2, MERTK (Homo sapiens, UniProt Q12866); test: kinase inhibition, MERTK
T2 sequence (Q12866 21-999): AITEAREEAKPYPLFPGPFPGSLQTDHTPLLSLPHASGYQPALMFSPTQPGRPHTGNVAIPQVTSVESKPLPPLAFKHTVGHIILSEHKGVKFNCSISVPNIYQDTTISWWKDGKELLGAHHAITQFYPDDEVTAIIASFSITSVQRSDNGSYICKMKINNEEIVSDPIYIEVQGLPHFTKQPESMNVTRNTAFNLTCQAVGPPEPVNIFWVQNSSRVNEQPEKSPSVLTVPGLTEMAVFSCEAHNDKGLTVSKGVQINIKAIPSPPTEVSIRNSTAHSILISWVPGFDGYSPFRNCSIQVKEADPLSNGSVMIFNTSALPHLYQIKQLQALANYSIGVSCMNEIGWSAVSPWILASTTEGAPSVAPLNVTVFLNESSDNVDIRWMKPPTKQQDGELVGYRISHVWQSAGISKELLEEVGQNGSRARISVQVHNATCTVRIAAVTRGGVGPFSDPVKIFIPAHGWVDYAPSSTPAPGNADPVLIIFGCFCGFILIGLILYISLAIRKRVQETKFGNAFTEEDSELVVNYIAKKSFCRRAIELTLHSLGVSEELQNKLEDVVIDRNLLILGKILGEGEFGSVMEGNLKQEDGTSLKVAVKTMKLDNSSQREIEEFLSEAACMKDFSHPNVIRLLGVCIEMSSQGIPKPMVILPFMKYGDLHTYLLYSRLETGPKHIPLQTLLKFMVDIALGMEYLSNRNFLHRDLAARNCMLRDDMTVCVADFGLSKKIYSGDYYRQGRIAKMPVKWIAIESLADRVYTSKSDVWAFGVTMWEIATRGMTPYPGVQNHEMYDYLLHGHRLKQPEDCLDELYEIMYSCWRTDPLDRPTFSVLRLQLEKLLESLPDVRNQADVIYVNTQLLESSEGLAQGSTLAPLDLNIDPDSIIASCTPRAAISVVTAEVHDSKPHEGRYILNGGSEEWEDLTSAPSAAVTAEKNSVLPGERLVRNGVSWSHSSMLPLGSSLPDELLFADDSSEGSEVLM

[3] = target: RSK1 (Homo sapiens, UniProt Q15418); test: kinase inhibition, RSK1
[4] = target: NEK7 (Homo sapiens, UniProt Q8TDX7); test: kinase inhibition, NEK7
[5] = target: T3, NEK9 (Homo sapiens, UniProt Q8TD19); test: kinase inhibition, NEK9
T3 sequence (Q8TD19 1-979): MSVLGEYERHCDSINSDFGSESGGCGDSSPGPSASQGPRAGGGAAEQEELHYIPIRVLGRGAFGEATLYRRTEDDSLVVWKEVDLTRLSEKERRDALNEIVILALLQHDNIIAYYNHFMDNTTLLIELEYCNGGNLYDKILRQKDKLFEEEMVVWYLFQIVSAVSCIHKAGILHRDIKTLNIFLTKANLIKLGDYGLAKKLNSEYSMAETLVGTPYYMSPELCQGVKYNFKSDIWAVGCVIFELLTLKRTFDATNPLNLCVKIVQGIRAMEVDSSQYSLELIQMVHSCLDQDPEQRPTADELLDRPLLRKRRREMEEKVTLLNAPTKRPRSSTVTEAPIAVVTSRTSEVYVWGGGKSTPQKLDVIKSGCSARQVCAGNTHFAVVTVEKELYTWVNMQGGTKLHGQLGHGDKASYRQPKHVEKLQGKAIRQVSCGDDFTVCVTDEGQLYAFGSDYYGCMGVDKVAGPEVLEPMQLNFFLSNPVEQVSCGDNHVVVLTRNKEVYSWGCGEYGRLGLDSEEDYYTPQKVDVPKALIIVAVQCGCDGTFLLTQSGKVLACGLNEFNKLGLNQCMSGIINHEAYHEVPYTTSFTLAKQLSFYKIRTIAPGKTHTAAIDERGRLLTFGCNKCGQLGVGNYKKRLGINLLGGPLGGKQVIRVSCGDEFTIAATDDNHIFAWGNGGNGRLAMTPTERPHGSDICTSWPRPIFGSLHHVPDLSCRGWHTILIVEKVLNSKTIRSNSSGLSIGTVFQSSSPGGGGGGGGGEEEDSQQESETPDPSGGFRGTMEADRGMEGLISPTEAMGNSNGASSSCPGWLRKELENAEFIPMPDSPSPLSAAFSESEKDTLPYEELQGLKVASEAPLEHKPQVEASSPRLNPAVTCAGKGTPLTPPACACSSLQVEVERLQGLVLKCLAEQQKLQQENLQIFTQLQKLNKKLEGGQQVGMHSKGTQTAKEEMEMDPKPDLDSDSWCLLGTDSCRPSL

[6] = target: T4, AXL (Homo sapiens, UniProt P30530); test: kinase inhibition, AXL
T4 sequence (P30530 26-894): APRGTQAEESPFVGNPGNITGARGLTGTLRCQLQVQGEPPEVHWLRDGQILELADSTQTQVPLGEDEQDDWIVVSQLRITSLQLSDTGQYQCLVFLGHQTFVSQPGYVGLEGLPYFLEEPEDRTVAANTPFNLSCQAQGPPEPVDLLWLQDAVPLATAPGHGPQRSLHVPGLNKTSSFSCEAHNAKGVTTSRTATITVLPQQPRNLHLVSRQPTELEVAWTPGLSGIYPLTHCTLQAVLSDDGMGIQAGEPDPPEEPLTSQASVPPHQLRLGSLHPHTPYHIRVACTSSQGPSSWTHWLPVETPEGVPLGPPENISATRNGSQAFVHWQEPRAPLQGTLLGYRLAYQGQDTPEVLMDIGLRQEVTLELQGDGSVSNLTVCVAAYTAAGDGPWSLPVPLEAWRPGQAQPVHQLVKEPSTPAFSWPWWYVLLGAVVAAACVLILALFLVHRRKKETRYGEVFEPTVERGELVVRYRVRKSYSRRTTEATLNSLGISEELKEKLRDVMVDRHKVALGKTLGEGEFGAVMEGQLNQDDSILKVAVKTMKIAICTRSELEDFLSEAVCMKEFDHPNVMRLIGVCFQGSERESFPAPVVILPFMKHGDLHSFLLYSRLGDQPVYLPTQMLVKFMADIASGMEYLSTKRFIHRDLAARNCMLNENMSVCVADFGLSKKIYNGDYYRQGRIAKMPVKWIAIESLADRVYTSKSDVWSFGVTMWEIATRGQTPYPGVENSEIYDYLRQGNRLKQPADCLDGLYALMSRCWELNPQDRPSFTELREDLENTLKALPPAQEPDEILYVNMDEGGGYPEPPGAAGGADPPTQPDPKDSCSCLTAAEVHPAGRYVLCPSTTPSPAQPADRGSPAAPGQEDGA

[7] = target: NEK6 (Homo sapiens, UniProt Q9HC98); test: kinase inhibition, NEK6
[8] = target: CLK; test: kinase inhibition, CLK
[9] = target: GSK3B (Homo sapiens, UniProt P49841); test: kinase inhibition, GSK3B
Sequence of GSK3B (P49841 whole entry, species assumed): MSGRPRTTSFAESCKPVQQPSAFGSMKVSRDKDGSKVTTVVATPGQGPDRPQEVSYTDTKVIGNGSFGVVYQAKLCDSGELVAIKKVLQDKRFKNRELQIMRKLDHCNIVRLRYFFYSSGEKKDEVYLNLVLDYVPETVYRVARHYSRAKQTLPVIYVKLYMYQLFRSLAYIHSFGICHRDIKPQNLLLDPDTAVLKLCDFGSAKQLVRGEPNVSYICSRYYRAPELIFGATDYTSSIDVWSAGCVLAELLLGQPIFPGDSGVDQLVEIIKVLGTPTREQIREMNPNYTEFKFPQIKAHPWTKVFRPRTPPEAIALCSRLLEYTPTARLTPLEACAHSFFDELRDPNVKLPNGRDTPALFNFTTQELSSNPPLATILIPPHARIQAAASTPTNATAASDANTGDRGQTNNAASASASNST

Sequence of NEK7 (Q8TDX7 whole entry, species assumed): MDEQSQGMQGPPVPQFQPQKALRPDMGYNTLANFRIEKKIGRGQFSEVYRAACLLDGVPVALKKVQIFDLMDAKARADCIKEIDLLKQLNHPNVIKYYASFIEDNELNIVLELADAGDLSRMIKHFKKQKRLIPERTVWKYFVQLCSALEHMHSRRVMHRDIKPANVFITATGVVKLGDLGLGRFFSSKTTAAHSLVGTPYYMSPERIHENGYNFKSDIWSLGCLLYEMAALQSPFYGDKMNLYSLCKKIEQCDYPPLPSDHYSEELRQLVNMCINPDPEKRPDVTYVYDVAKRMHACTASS
Sequence of NEK6 (Q9HC98 whole entry, species assumed): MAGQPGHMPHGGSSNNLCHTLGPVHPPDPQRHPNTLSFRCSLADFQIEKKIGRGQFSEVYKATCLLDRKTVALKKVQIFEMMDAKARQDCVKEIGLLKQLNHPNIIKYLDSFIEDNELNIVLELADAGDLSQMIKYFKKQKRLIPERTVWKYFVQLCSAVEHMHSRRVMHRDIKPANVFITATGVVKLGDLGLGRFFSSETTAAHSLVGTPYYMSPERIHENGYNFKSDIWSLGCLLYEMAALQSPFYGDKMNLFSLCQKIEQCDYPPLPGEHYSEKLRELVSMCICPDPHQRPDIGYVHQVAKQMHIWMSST
Sequence of RSK1 (Q15418 whole entry, species assumed): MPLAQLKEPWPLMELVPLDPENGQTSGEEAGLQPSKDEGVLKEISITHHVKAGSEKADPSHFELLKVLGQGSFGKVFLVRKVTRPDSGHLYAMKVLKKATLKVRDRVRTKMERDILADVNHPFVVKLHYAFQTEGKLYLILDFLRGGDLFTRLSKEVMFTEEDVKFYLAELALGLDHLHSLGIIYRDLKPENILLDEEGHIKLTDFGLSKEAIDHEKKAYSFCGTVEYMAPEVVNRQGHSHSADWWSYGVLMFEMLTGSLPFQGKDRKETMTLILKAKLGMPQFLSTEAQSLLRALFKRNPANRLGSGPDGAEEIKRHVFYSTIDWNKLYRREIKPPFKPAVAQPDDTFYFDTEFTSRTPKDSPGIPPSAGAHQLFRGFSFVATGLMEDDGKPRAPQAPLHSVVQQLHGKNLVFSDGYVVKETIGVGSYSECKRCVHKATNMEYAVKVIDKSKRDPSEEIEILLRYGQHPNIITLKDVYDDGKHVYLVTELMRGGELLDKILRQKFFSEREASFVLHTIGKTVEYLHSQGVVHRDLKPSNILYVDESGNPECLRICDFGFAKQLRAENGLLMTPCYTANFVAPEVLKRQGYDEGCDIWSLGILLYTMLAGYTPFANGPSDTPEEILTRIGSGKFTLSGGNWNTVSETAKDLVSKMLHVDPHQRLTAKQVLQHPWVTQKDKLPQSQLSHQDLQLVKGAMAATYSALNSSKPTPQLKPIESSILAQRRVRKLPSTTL

IC50 [1]: 50 to 250 nM
IC50 [2]: 250 to 1000 nM
IC50 [3]: 250 to 1000 nM
IC50 [4]: 250 to 1000 nM
IC50 [6]: 250 to 1000 nM
IC50 [7]: 1000 to 5000 nM
IC50 [8]: 50 to 250 nM
IC50 [9]: 250 to 1000 nM
SMILES: CN1CCN(c2ccc(Nc3ncc4c(n3)N3c5ccccc5CC3C(=O)N4C)cc2)CC1 (stereo not drawn) [Compound I-7]
IC50 [5]: ≤ 50 nM
